Reference: PubChem BioAssay AID192 (DTP/NCI, 2004)
“And” between values parts separate entries of the source, which are not always exact repeats. Equal entries are not always repeated. Inconclusive results and toxic doses are left out. How the source made its calls: active means survival T/C of 150% or more; inactive means T/C below 125% in these data.

Tested on: BDF1 mice, B16 melanoma ip, median survival T/C
Assay: NCI In Vivo Anticancer Drug Screen. Data for tumor model B16 Melanoma (intraperitoneal) in B6D2F1 (BDF1) mice
Conditions: endpoint: median survival time, higher = longer survival
Summary of the method: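 Antitumor activity is assessed in mice bearing a transplanted tumor, with survival or tumor size compared against vehicle-dosed controls and expressed as T/C.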

[1] = dose: 50.0 mg/kg/injection, schedule: Q01DX009 (ip), vehicle: Klucel (hydroxypropylcellulose) (HPC)
[2] = dose: 100.0 mg/kg/injection, schedule: Q01DX009 (ip), vehicle: Klucel (hydroxypropylcellulose) (HPC)
[3] = dose: 200.0 mg/kg/injection, schedule: Q01DX009 (ip), vehicle: Klucel (hydroxypropylcellulose) (HPC)

Measured: T/C

CCOc1ccc(N2CSC(=S)N(c3ccc(OCC)cc3)C2)cc1
inactive: [1] 99 % of control | [2] 94 % of control | [3] 88 % of control

O=S(=O)(Nc1ccc(-c2ccccc2)cc1)c1ccccc1
inactive: dose: 50.0 mg/kg/injection, schedule: Q01DX009 (ip), vehicle: saline with Tween-80 100 % of control | dose: 100.0 mg/kg/injection, schedule: Q01DX009 (ip), vehicle: saline with Tween-80 91 % of control | dose: 200.0 mg/kg/injection, schedule: Q01DX009 (ip), vehicle: saline with Tween-80 89 % of control

Cc1cc(OC(=O)c2ccc(N(C)C)cc2)ccc1[N+](=O)[O-]
inactive: dose: 25.0 mg/kg/injection, schedule: Q01DX009 (ip), vehicle: Klucel (hydroxypropylcellulose) (HPC) 92 % of control | [1] 92 % of control | [2] 88 % of control

COc1cc(NS(C)(=O)=O)ccc1Nc1c2ccc(Cl)cc2nc2c(OC)cccc12
active: dose: 2.3 mg/kg/injection, schedule: Q01DX009 (ip), vehicle: other 156 % of control | dose: 3.0 mg/kg/injection, schedule: Q01DX009 (ip), vehicle: saline with Tween-80 152 % of control | dose: 3.13 mg/kg/injection, schedule: Q01DX009 (ip), vehicle: saline with Tween-80 178 % of control | dose: 4.5 mg/kg/injection, schedule: Q01DX009 (ip), vehicle: other 184 % of control | dose: 6.25 mg/kg/injection, schedule: Q01DX009 (ip), vehicle: saline with Tween-80 194 % of control | dose: 8.0 mg/kg/injection, schedule: Q01DX009 (ip), vehicle: saline with Tween-80 178 % of control and 185 % of control | dose: 9.0 mg/kg/injection, schedule: Q01DX009 (ip), vehicle: other 241 % of control | dose: 9.0 mg/kg/injection, schedule: Q04DX003 (ip), vehicle: water 152 % of control | dose: 12.0 mg/kg/injection, schedule: Q01DX009 (ip), vehicle: saline with Tween-80 190 % of control and 219 % of control | dose: 12.5 mg/kg/injection, schedule: Q01DX009 (ip), vehicle: saline with Tween-80 236 % of control | dose: 18.0 mg/kg/injection, schedule: Q01DX009 (ip), vehicle: saline with Tween-80 196 % of control | dose: 18.0 mg/kg/injection, schedule: Q04DX003 (ip), vehicle: water 172 % of control | dose: 36.0 mg/kg/injection, schedule: Q04DX003 (ip), vehicle: water 200 % of control
inactive: dose: 0.38 mg/kg/injection, schedule: Q01DX009 (ip), vehicle: saline with Tween-80 123 % of control | dose: 0.75 mg/kg/injection, schedule: Q01DX009 (ip), vehicle: saline with Tween-80 110 % of control | dose: 0.8 mg/kg/injection, schedule: Q01DX005 (iv), vehicle: water 96 % of control | dose: 0.8 mg/kg/injection, schedule: Q04DX003 (iv), vehicle: water 100 % of control | dose: 1.6 mg/kg/injection, schedule: Q01DX005 (iv), vehicle: water 104 % of control | dose: 1.6 mg/kg/injection, schedule: Q04DX003 (iv), vehicle: water 92 % of control | dose: 3.3 mg/kg/injection, schedule: Q01DX005 (iv), vehicle: water 106 % of control | dose: 3.3 mg/kg/injection, schedule: Q04DX003 (iv), vehicle: water 96 % of control | dose: 6.5 mg/kg/injection, schedule: Q01DX005 (iv), vehicle: water 109 % of control | dose: 6.5 mg/kg/injection, schedule: Q04DX003 (iv), vehicle: water 105 % of control | dose: 13.0 mg/kg/injection, schedule: Q04DX003 (iv), vehicle: water 111 % of control

CC1OC(C)(C)OC1C(=O)O (stereo unspecified)
inactive: dose: 6.25 mg/kg/injection, schedule: Q01DX009 (ip), vehicle: water 96 % of control | dose: 12.5 mg/kg/injection, schedule: Q01DX009 (ip), vehicle: water 119 % of control | dose: 25.0 mg/kg/injection, schedule: Q01DX009 (ip), vehicle: water 104 % of control | dose: 50.0 mg/kg/injection, schedule: Q01DX009 (ip), vehicle: water 105 % of control

COc1ccc(NC(=O)COc2ccc(Cl)cc2)cc1
inactive: [2] 90 % of control | [3] 100 % of control | dose: 400.0 mg/kg/injection, schedule: Q01DX009 (ip), vehicle: Klucel (hydroxypropylcellulose) (HPC) 86 % of control

CN1CCN(c2ccc([N+](=O)[O-])c3no[n+]([O-])c23)CC1
inactive: dose: 5.0 mg/kg/injection, schedule: Q01DX009 (ip), vehicle: saline with Tween-80 111 % of control | dose: 5.0 mg/kg/injection, schedule: Q01DX011 (ip), vehicle: saline with Tween-80 110 % of control | dose: 10.0 mg/kg/injection, schedule: Q01DX009 (ip), vehicle: saline with Tween-80 107 % of control | dose: 10.0 mg/kg/injection, schedule: Q01DX011 (ip), vehicle: saline with Tween-80 109 % of control

O=S(=O)(O)CNc1cc(Cl)cc(Cl)c1
inactive: [2] 108 % of control | [3] 94 % of control
